Measurements taken from patent US20260256741A1, “ANTICANCER MALEIMIDE DERIVATIVES FOR USE WITH IMMUNE CHECKPOINT BLOCKADE” (BROWN UNIVERSITY, priority 2022, published 2026).

Assays:
Format in all cases: cell-based, human
TALL-104 cells [1] = assay: Cytokine profiling of cell culture supernatant (Luminex 200), TALL-104
Description: Cells were plated at 3.5×10^4 cells in a 48-well plate (Thermo Fisher Scientific, Waltham, MA, USA) in complete medium and incubated at 37° C. with 5% CO2. At 24 hours after plating, almost all the tumor cells were adherent to the bottom of the flask and the complete medium was replaced with the drug-containing medium. […] On the day of analysis, samples were thawed and centrifuged to remove cellular debris.
Human cell line culture supernatants were analyzed using an R&D systems Human Premixed Multi-Analyte Kit (R&D Systems, Inc., Minneapolis, MN, USA) and a Luminex 200 (RRID: SCR_018025) Instrument (LX200-XPON-RUO, Luminex Corporation, Austin, TX, USA) according to the manufacturer's instructions. Sample levels of TNF-α, 4-1BB/TNFRSF9/CD137, IL-8/CXCL8, Ferritin, IFN-β, IL-10, CCL2/JE/MCP-1, VEGF, CXCL13/BLC/BCA-1, IFN-γ, CCL20/MIP-3 α, CCL3/MIP-1 α, CCL22/MDC, CCL4/MIP-1 β, Fas Ligand/TNFSF6, IL-17/IL-17A, IL-2, BAFF/BLyS/TNFSF13B, GM-CSF, CXCL5/ENA-78, TRANCE/TNFSF11/RANK L, CXCL9/MIG, G-CSF, IFN-γ R1/CD119, VEGFR3/Flt-4, C-Reactive Protein/CRP, CXCL11/I-TAC, IL-21, CXCL14/BRAK, IL-6, Fas/TNFRSF6/CD95, TRAIL R3/TNFRSF10C, IL-4, CCL5/RANTES, PD-L1/B7-H1, CCL7/MCP-3/MARC, Chitinase 3-like 1, CXCL10/IP-10/CRG-2, IL-1 β/IL-1F2, IL-7, Prolactin, CCL8/MCP-2, TRAIL R2/TNFRSF10B, M-CSF, IL-15, Granzyme B, IFN-α, TREM-1, IL-12/IL-23 p40, TRAIL/TNFSF10, CCL11/Eotaxin, and IL-18/IL-1F4. Quantitative analysis with 6 standards and a minimum of 50 counts per bead region was used with the Luminex to generate analyte values reported as picograms/milliliter (pg/mL). Sample concentrations less than the lower limit of detection for each particular analyte were recoded as the lower limit value divided by ten. Sample concentrations above the upper limit of detection for a particular analyte were recoded as the upper limit of detection.

TALL-104 cells [2] = assay: Western blot analysis of TALL-104 immune cells
Description: Cells were plated in a 6-well plate and incubated overnight before the spent media was replaced with drugged media. Drug treatment lasted for indicated durations. Protein was extracted using radioimmunoprecipitation (RIPA) assay buffer (Cat #R0278, Sigma-Aldrich, St. Louis, MO) containing cOmplete™, Mini, EDTA-free Protease Inhibitor Cocktail (Cat #4693159001, Roche, Basel, Switzerland) from sub-confluent cells. Denaturing sample buffer was added, samples were boiled at 95 degrees for 10 minutes, and an equal amount of protein lysate was electrophoresed through NuPAGE™ 4 to 12%, Bis-Tris, 1.5 mm, Mini Protein Gels (Invitrogen, Waltham, MA) then transferred to PVDF membranes. The PVDF membrane was blocked with 5% non-fat milk (Sigma-Aldrich, St. Louis, MO) in 1×TTBS. Primary antibodies were incubated with the transferred PVDF membrane in blocking buffer at 4° C. overnight. Secondary antibodies used included Goat anti-Rabbit IgG (H+L) Secondary Antibody, HRP (Cat #31460, Invitrogen, Waltham, MA), and Goat anti-Mouse IgG (H+L) Secondary Antibody, HRP (Cat #31430, Invitrogen, Waltham, MA). Signal was detected using Pierce™ ECL Western Blotting Substrate (Cat #32106, Thermo Scientific, Waltham, MA, USA) and a Syngene Imaging System (RRID: SCR_015770).

HCT 116 GFP+ cells = assay: Single-color GFP+ immune cell co-culture, HCT 116; settings: 48 hours
Description: 50,000 HT-29 or HCT 116 cells were seeded in a 12-well tissue culture plate and allowed to adhere overnight. They were then transduced with lentivirus containing the plasmid pLenti_CMV_GFP_Hygro [pLenti CMV GFP Hygro (656-4) was a gift from Eric Campeau & Paul Kaufman (Addgene viral prep #17446-LV; RRID: Addgene_17446)] at a multiplicity of infection of 10 with 8 μg/mL polybrene (hexadimethrine bromide [Cat #107689, Sigma Aldrich, St. Louis, MO, USA) for 24 hours before washing with PBS and replacing with fresh medium (49). The cells were then sorted for GFP-positivity using a BD FACSAria™ III Cell Sorter (RRID: SCR_016695).
5000 HT-29 GFP+ or HCT 116 GFP+ cells were plated per well in a clear-bottom, black-walled 96-well tissue culture plate and were allowed to adhere overnight. Cells were subsequently treated with DMSO, 5 μM elraglusib, and/or 5000 TALL-104 or NK-92 cells (for an effector-to-tumor ratio of 1:1) for 48 hours. Nine images were taken per well at 10× magnification using a Molecular Devices ImageXpress® Confocal HT.ai High-Content Imaging System and quantified for the number of GFP+ objects using the MetaXpress (RRID: SCR_016654) software (Molecular Devices, San Jose, CA, USA). 40× Images were also taken at 24 hours for representative images of cellular morphology changes. Statistical analysis was done using GraphPad Prism 9 (RRID: SCR_002798).

[3] = as treatment duration increased (0-72 hours)
[4] = immune cell lysates, cell line not given, 0-72 hours

## Cn1cc(C2=C(c3coc4ccc(F)cc34)C(=O)NC2=O)c2cc3c(cc21)OCO3 [elraglusib, 3-(5-fluorobenzofuran-3-yl)-4-(5-methyl-5H-[1,3]dioxolo[4,5-f]indol-7-yl)-1H-pyrrole-2,5-dione]
TALL-104 cells [1]; 1 μM, 48 hours
  IFN-γ concentration in supernatant: increases
  TRAIL concentration in supernatant: increases
  granzyme B concentration in supernatant: increases
TALL-104 cells [1]; 24 hours treatment vs DMSO
  IFN-γ in cell culture supernatant: significant increase in IFN-γ
TALL-104 cells [2]; [3]
  NF-κB protein: did not notice significant changes
  survival protein Bcl-2: did not notice significant changes
TALL-104 cells [2]; [4]
  NF-κB-inducing kinase (NIK): increases
  survival protein Survivin: increases
HCT 116 GFP+ cells; 5 μM elraglusib and NK-92 cells vs drug-only or immune cell-only
  tumor cell death: increased tumor cell death
HCT 116 GFP+ cells; 5 μM elraglusib only vs DMSO only control
  GFP+ cells per low-powered field: significant decrease
HCT 116 GFP+ cells; TALL-104 and 5 μM elraglusib vs TALL-104 only
  number of GFP+ cells per field: significant decrease
